What all share (type): cell-based, mouse
Experiment [1] concerns ES cells. As to the kind of experiment: ES cell self-renewal versus differentiation in serum-free N2B27 adherent culture with passaging. Conditions: for ES cell self-renewal / differentiation: N2B27 serum-free, factor(s) as labelled; for ES cell self-renewal with TGF-β superfamily ligand or other factor in place of BMP4: N2B27, in the presence of LIF. Here is the method: (§1) ES cells were maintained without feeder cells. For serum-free culture, ES cells were plated onto gelatin-coated plates in N2B27 medium (Ying and Smith, 2003) supplemented with 10 ng/ml LIF (Sigma) and 10 ng/ml BMP4 or 200 ng/ml GDF6 (R&D Systems). Cells were passaged every 2-4 days using either enzyme-free Cell Dissociation Buffer (Invitrogen) or 0.025% trypsin/1% chicken serum. Dissociated cells were harvested in N2B27 and pelleted. Supernatant was aspirated and the cell pellet resuspended in N2B27 and replated directly. For single cell cloning, a finely drawn Pasteur pipette pre-loaded with N2B27 was used to pick individual cells into 10 μl drops. Drops were then singly transferred to 96-well plates pre-loaded with 150 μl N2B27 per well with LIF or LIF plus BMP4. After 8 days, ES cell colonies were identified and passaged. To produce chimaeras, ES cells were injected into C57Bl/6 blastocysts. Germline transmission was tested by mating male chimaeras with C57Bl/6 females.

Experiment [2] has as its system Id1 Transfectants. The experiment in a line: Propagation of single ES cells in serum-free medium (single cell cloning), Id1 transfectants.
Source text: Under these conditions the transfectants were not overtly different from parental ES cells or empty vector transfectants. In contrast, in serum-free N2B27, Id transfectants whilst remaining LIF-dependent, were liberated from requirement for BMP. These cells proliferated in LIF alone as rapidly and with as little differentiation as parental ES cells in LIF plus BMP. The cultures could be passaged multiple times with no change in undifferentiated morphology or factor dependence. The ES cell phenotype was confirmed by expression of Oct4 and Nanog mRNAs (FIG. 4D). As a rigorous test of the capacity of Id expression to substitute for serum or BMP/GDF, we plated single cells in N2B27.
as §1

In experiment [3] the test system is Id genes. The experiment in a line: Gene induction in Oct4-selected ES cells (LightCycler RT-PCR, Northern hybridisation). Conditions: overnight in N2B27, then stimulated 45 minutes. Here is the method: (§2) Oct4GiP ES cells (Ying et al., 2002) were cultured in the presence of puromycin for 4-6 days to eliminate differentiated cells. Purified ES cells were cultured in complete medium plus LIF for 24 hours then washed once with PBS and transferred to N2B27 medium overnight prior to stimulation for 45 min. with 20 ng/ml LIF, 50 ng/ml BMP4, LIF plus BMP4, 10 ng/ml TGF-β1 (all R&D Systems) or 15% FCS. Quantitative RT-PCR was carried out using the LightCycler Instrument (Roche). Data were normalised relative to Oct4 amplification. Primer pairs and reaction conditions are available upon request. Northern hybridizations were carried out on 5 μg aliquots of total RNA.

Experiment [4] relates to Smad1. The experiment in a line: Immunoblot of active serine phosphorylated Smad1 in undifferentiated ES cells. The settings on record: 15 min or 1 hour stimulation. Here is the method: (§3) Pre-selected Oct4GiP ES cells were transferred to N2B27 medium overnight prior to stimulation with LIF (20 ng/ml), BMP4 (50 ng/ml) or LIF plus BMP4 for 15 min or 1 hour. Phosphorylated stat3, smad1, erk1/2 and p38 were detected by immunoblotting (Cell Signaling Technology). Cell lysis and immunoprecipitation (Nakashima et al., 1997) employed anti-FLAG (Sigma) or anti-Stat3 (Transduction Labs). Immunostaining was performed as described (Ying et al., 2003)
In general terms: A western blot detects proteins with antibodies after separation by electrophoresis.

The subject of experiment [5] is p38 and erk mitogen-activated protein kinases. As to the kind of experiment: Immunoblot of p38 and erk activation in undifferentiated ES cells. As for the experimental part:
as §3

Experiment [6] concerns STAT3. As to the kind of experiment: Immunoblot of STAT3 tyrosine 705 phosphorylation in ES cells. As for the experimental part:
as §3

Experiment [7] relates to blastocysts / inner cell masses. The experiment in a line: Derivation of ES cells from blastocysts in serum free medium. Conditions: ICM dissociated after 4 days of blastocyst culture in LIF only, BMP4 added on replating. From the text:
We investigated whether the response to BMP may be an adaptation of established ES cells to culture or is manifest during the initial stages of ES cell derivation. We plated blastocysts in N2B27 supplemented with BMP plus LIF. After several days expanded inner cell masses (ICMs) were dissociated and replated in the same culture conditions. […] Therefore we subsequently dissociated the ICM after only 4 days of blastocyst culture in LIF only and added BMP4 on replating. […] These could be passaged and expanded as morphologically undifferentiated ES cells. One line (SF1) was characterised further. Upon withdrawal of LIF and BMP, SF1 ES cells underwent neural differentiation in vitro. Moreover, SF1 cells produced extensively chimaeric mice (FIG. 2F). Twelve chimaeras were all male, indicative of sex conversion by highly contributing XY ES cells (Bradley et al., 1984).
Strain 129 mice were ovariectomised on the third day of pregnancy and embryos in diapause flushed 4 days later (Nichols et al., 1990). Intact blastocysts were plated on gelatin-coated plastic in N2B27 supplemented with LIF (10 ng/ml). After 3-6 days the central mass of each explant was picked, rinsed in PBS and placed in a drop of trypsin for a few minutes. […]

Experiment [8] deals with tis11, c-fos, junB, socs3. As to the kind of experiment: Induction of known LIF target genes in Oct-selected ES cells (real time RT-PCR). Conditions: 45 min stimulation. Here is the method: as §2
(In general: Real-time PCR tracks product formation cycle by cycle.)

[9] abbreviates: Id1 transfectants, single cells, N2B27 serum-free.

Entries after “also recorded” stand apart in the source; their conditions may differ.

Turning to `C[S+]([O-])c1ccc(-c2nc(-c3ccncc3)c(-c3ccc(F)cc3)[nH]2)cc1` (stereo not drawn) [SB203580, reference compound], in experiment [1] (30 μM, N2B27), the “Effect of p38 inhibitor on balance of self-renewal and neural differentiation in LIF only” value is “does not suppress; also recorded: did not alter the balance between self-renewal and neural differentiation”; the “Effect of p38 inhibitor on self-renewal in LIF plus BMP” value is given as “does not suppress; also recorded: no noticeable effect”. In addition, in experiment [1] (N2B27), the “Overall cell viability in LIF only” value was “appeared to enhance overall cell viability”.
Take “LIF: gp130 receptor binding cytokine, Leukaemia Inhibitory Factor”: in experiment [2] (setting [9]), the “Number of colonies expanded” value was determined as 16 and the “Number of colonies formed at day 8” value turned out to be 19. Also, in experiment [2] (Id transfectants, N2B27), the “Frequency of undifferentiated passageable colony formation from single cells” value came out at 10%. Also, the “ES cell self-renewal / differentiation” value in experiment [1] is given as “reduces but does not eliminate neural differentiation”. The “Passages after which number of undifferentiated ES cells began to decline” value in experiment [1] (successive passaging in N2B27) is reported as 2-3 passages.
Turning to “TGF-β1: TGF-β superfamily member, not a BMP receptor ligand”, in experiment [1], the “ES cell self-renewal with TGF-β superfamily ligand or other factor in place of BMP4” value (“ES cell self-renewal … of BMP4” below) is “no discernible effect on ES cells”. Also, the “Id gene (Id1, Id2, Id3) mRNA induction” value in experiment [3] is on record as “Neither activin (data not shown) nor TGF-β1 induce Id gene expression”.
For the molecule activin, in experiment [1], the “ES cell self-renewal … of BMP4” value is reported as “increased viability and/or proliferation but did not suppress differentiation”. Besides, in experiment [3], the “Id gene (Id1, Id2, Id3) mRNA induction” value is “Neither activin (data not shown) nor TGF-β1 induce Id gene expression”.
fibronectin: in experiment [1] (N2B27, in combination with LIF), the “Passages over which undifferentiated Oct4-GiP cells could be expanded” value was “at least 10 passages”. Moreover, the “ES cell self-renewal … of BMP4” value in experiment [1] is “more differentiation and slower population expansion than in BMP”. Also, the “Id gene (Id1, Id2, Id3) mRNA induction” value in experiment [3] is “induced by foetal calf serum and by fibronectin, although to a lesser extent than by BMP”.

B1: BMP4: BMP receptor ligand, agonist of the TGF-β superfamily signalling pathway (protein, UniProt P12644 293-408, looked up)
Bone morphogenetic protein 4: SPKHHSQRARKKNKNCRRHSLYVDFSDVGWNDWIVAPPGYQAFYCHGDCPFPLADHLNSTNHAIVQTLVNSVNSSIPKACCVPTELSAISMLYLDEYDKVVLKNYQEMVVEGCGCR
Regarding B1, the “ES cell self-renewal / differentiation” value in experiment [1] is “differentiation into sheets of flattened epithelial-like cells”. Besides, the “Id gene (Id1, Id2, Id3) mRNA induction” value in experiment [3] was “strongly induced”. Besides, the “Phosphorylation of Smad1” value in experiment [4] was “Increased phosphorylation of Smad1”. The “Erk activation in response to LIF in presence of BMP” value in experiment [5] (LIF plus BMP) was “not appreciably inhibited”. In experiment [5] (undifferentiated ES cells, 15 min or 1 hour stimulation), the “Activation of p38 and erk” value is recorded as “enhances the basal activation of p38 and, by one hour, of erk”. The “STAT3 activation (phosphorylation of tyrosine 705)” value in experiment [6] (BMP alone) is “does not activate STAT3”. Further, the “STAT3 activation by LIF in presence of BMP” value in experiment [6] (LIF plus BMP) is “Nor does it increase STAT3 activation by LIF”. In addition, in experiment [7], the “Formation of primary ES cell colonies” value is recorded as “primary ES cell colonies did form”. In experiment [8], the “Induction of junB and socs3 mRNA” value was “more highly induced by LIF in the presence of BMP”; the “Induction of tis11 and c-fos mRNA” value was “showed no response to BMP”.

B2: GDF-6: BMP relative growth and differentiation factor-6 (protein, UniProt Q6KF10 336-455, looked up)
Growth/differentiation factor …: TAFASRHGKRHGKKSRLRCSKKPLHVNFKELGWDDWIIAPLEYEAYHCEGVCDFPLRSHLEPTNHAIIQTLMNSMDPGSTPPSCCVPTKLTPISILYIDAGNNVVYKQYEDMVVESCGCR
With B2, the “ES cell self-renewal … of BMP4” value in experiment [1] is reported as “similarly supported ES cell self-renewal”. For the same molecule, in experiment [3], the “Id gene (Id1, Id2, Id3) mRNA induction” value was “strongly induced”.

The values above are taken from US20070178439A1, “Control of es cell self renewal and lineage specification, and medium therefor” (priority 2003, published 2007).
